Laboratory results taken from patent US20230114728A1 (Venatorx Pharmaceuticals, Inc., priority 2019, published 2023).
Values after ≈ are worked out from the molar mass of the structure shown.

What was measured:
Type in all cases: cell-based
A. baumannii ATCC 19606 = experiment: Broth microdilution MIC in CAMHB; conditions: Acinetobacter baumannii, ATCC19606; MHB; read-out: Minimum Inhibitory Concentration, A. baumannii ATCC 19606
In short: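 MIC, read by eye, is the lowest compound concentration giving no bacterial growth after 16-20 h at 37° C. Test compounds are serially diluted 2-fold in CAMHB and seeded with 2-8×10^5 CFU/mL of bacteria taken from a 3-5 h shaking culture, following CLSI methods.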

E. coli 901C = experiment: Broth microdilution MIC in CAMHB; conditions: Escherichia coli; E. coli 901C (hyper-permeable); MHB; read-out: Minimum Inhibitory Concentration, E. coli 901C
In short: (§1)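 Standard CLSI-style microdilution in cation-adjusted Mueller Hinton broth, 2-fold dilution series, incubated 16-20 h at 37° C; endpoint was visual absence of growth.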

E. coli AG100 = experiment: Broth microdilution MIC in CAMHB; conditions: Escherichia coli; E. coli AG100 (wild-type parent); MHB; read-out: Minimum Inhibitory Concentration, E. coli AG100
In short: as §1

E. coli D22 = experiment: Broth microdilution MIC in CAMHB; conditions: Escherichia coli; E. coli D22 (hyper-permeable); MHB; read-out: Minimum Inhibitory Concentration, E. coli D22
In short: as §1

[1] = system: K. pneumoniae SI-117 producing VIM-1; experiment: Broth microdilution MIC in CAMHB; conditions: Klebsiella pneumoniae, read-out: Minimum Inhibitory Concentration, K. pneumoniae SI-117
In short: as §1

[2] = system: N. gonorrhoeae ATCC 49226; experiment: Liquid broth MIC in Fastidious broth; conditions: Neisseria gonorrhoeae, ATCC49226; N. gonorrhoeae strain ATCC 49226; Fastidious broth; read-out: Minimum Inhibitory Concentration, N. gonorrhoeae ATCC 49226
In short: (§2)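 Colonies were swabbed from chocolate agar after 24 h growth and standardised by optical density at 600 nm. Compounds were serially diluted twofold in Fastidious broth, and bacteria added to give 5×10^5 CFU/mL. After about 24 h at 36 °C in 5% CO2, the lowest concentration allowing under 10% growth was taken as MIC.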

N. gonorrhoeae FA1090 = experiment: Liquid broth MIC in Fastidious broth; conditions: Neisseria gonorrhoeae; N. gonorrhoeae strain FA1090; Fastidious broth; read-out: Minimum Inhibitory Concentration, N. gonorrhoeae FA1090
In short: as §2

N. gonorrhoeae H041 = experiment: Liquid broth MIC in Fastidious broth; conditions: Neisseria gonorrhoeae, H041, read-out: Minimum Inhibitory Concentration, N. gonorrhoeae H041
In short: (§3)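 Mosaic PBP2 producers; colonies from 24 h chocolate agar, saline suspension, OD600. Fastidious broth, 2-fold dilutions, 5×10^5 CFU/mL. ~24 h, 36 °C, 5% CO2; visual MIC, <10% growth cutoff.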

N. gonorrhoeae WHO G = experiment: Liquid broth MIC in Fastidious broth; conditions: Neisseria gonorrhoeae; N. gonorrhoeae strain WHO G; Fastidious broth; read-out: Minimum Inhibitory Concentration, N. gonorrhoeae WHO G
In short: as §2

N. gonorrhoeae WHO K = experiment: Liquid broth MIC in Fastidious broth; conditions: Neisseria gonorrhoeae, read-out: Minimum Inhibitory Concentration, N. gonorrhoeae WHO K
In short: as §3

N. gonorrhoeae WHO L = experiment: Liquid broth MIC in Fastidious broth; conditions: Neisseria gonorrhoeae; N. gonorrhoeae strain WHO L; Fastidious broth; read-out: Minimum Inhibitory Concentration, N. gonorrhoeae WHO L
In short: as §2

N. gonorrhoeae WHO Q = experiment: Liquid broth MIC in Fastidious broth; conditions: Neisseria gonorrhoeae, read-out: Minimum Inhibitory Concentration, N. gonorrhoeae WHO Q
In short: as §3

N. gonorrhoeae WHO Z = experiment: Liquid broth MIC in Fastidious broth; conditions: Neisseria gonorrhoeae, read-out: Minimum Inhibitory Concentration, N. gonorrhoeae WHO Z
In short: as §3

SMILES | MIC (A. baumannii ATCC 19606) [µg/mL] | MIC (E. coli 901C) [µg/mL] | MIC (E. coli AG100) [µg/mL] | MIC (E. coli D22) [µg/mL] | MIC [1] [µg/mL] | MIC [2] [µg/mL] | MIC (N. gonorrhoeae FA1090) [µg/mL] | MIC (N. gonorrhoeae H041) [µg/mL] | MIC (N. gonorrhoeae WHO G) [µg/mL] | MIC (N. gonorrhoeae WHO K) [µg/mL] | MIC (N. gonorrhoeae WHO L) [µg/mL] | MIC (N. gonorrhoeae WHO Q) [µg/mL] | MIC (N. gonorrhoeae WHO Z) [µg/mL]
CCN1CCN(C(=O)NC(C(=O)N[C@H]2Cc3cccc(C(=O)O)c3OB2O)c2ccc(O)c(F)c2F)C(=O)C1=O (stereo partly shown) [Example 173] | > 128 | < 0.25 | 8 to 16 (≈ 14.3 to 28.6 µM) | 2 to 4 (≈ 3.57 to 7.14 µM) | 32 to 64 (≈ 57.1 to 114 µM) | 1 to 2 (≈ 1.78 to 3.57 µM) | < 0.125 | 16 to 32 (≈ 28.6 to 57.1 µM) | 1 to 2 (≈ 1.78 to 3.57 µM) | 16 to 32 (≈ 28.6 to 57.1 µM) | 16 to 32 (≈ 28.6 to 57.1 µM) | 16 to 32 (≈ 28.6 to 57.1 µM) | 4 to 8 (≈ 7.14 to 14.3 µM)
NCCN1CCN(C(=O)NC(C(=O)N[C@H]2Cc3cccc(C(=O)O)c3OB2O)c2c(F)c(F)c(O)c(F)c2F)C(=O)C1=O (stereo partly drawn) [Example 174, (3R)-3-(2-(4-(2-aminoethyl)-2,3-dioxopiperazine-1-carboxamido)-2-(2,3,5,6-tetrafluoro-4-hydroxyphenyl)acetamido)-2-hydroxy-3,4-dihydro-2H-benzo[e][1,2]oxaborinine-8-carboxylic acid] | > 128 | 0.5 to 1 (≈ 0.818 to 1.64 µM) | 8 to 16 (≈ 13.1 to 26.2 µM) | 2 to 4 (≈ 3.27 to 6.54 µM) | > 128 | 4 to 8 (≈ 6.54 to 13.1 µM) | 0.25 to 0.5 (≈ 0.409 to 0.818 µM) | > 64 | 1 to 2 (≈ 1.64 to 3.27 µM) | > 64 | 16 to 32 (≈ 26.2 to 52.4 µM) | 16 to 32 (≈ 26.2 to 52.4 µM) | 16 to 32 (≈ 26.2 to 52.4 µM)
CCN1CCN(C(=O)NC(C(=O)N[C@H]2Cc3cccc(C(=O)O)c3OB2O)c2c(F)c(F)c(O)c(F)c2F)C(=O)C1=O (stereo partly drawn) [Example 175, (3R)-3-(2-(4-ethyl-2,3-dioxopiperazine-1-carboxamido)-2-(2,3,5,6-tetrafluoro-4-hydroxyphenyl)acetamido)-2-hydroxy-3,4-dihydro-2H-benzo[e][1,2]oxaborinine-8-carboxylic acid] | 32 to 64 (≈ 53.7 to 107 µM) | < 0.25 | 8 to 16 (≈ 13.4 to 26.8 µM) | 2 to 4 (≈ 3.35 to 6.71 µM) | > 128 | 1 to 2 (≈ 1.68 to 3.35 µM) | < 0.125 | 4 to 8 (≈ 6.71 to 13.4 µM) | 0.25 to 0.5 (≈ 0.419 to 0.839 µM) | 1 to 2 (≈ 1.68 to 3.35 µM) | 4 to 8 (≈ 6.71 to 13.4 µM) | 1 to 2 (≈ 1.68 to 3.35 µM) | 1 to 2 (≈ 1.68 to 3.35 µM)
CCN1CCN(C(=O)NC(C(=O)N[C@H]2Cc3cccc(C(=O)O)c3OB2O)c2c(F)cc(NS(N)(=O)=O)cc2F)C(=O)C1=O (stereo partly drawn) [Example 176, (3R)-3-(2-(2,6-difluoro-4-(sulfamoylamino)phenyl)-2-(4-ethyl-2,3-dioxopiperazine-1-carboxamido)acetamido)-2-hydroxy-3,4-dihydro-2H-benzo[e][1,2]oxaborinine-8-carboxylic acid] | > 128 | < 0.25 | 32 to 64 (≈ 50.1 to 100 µM) | 2 to 4 (≈ 3.13 to 6.27 µM) | > 128 | 4 to 8 (≈ 6.27 to 12.5 µM) | 0.25 to 0.5 (≈ 0.392 to 0.783 µM) | > 64 | 4 to 8 (≈ 6.27 to 12.5 µM) | > 64 | > 64 | > 64 | 16 to 32 (≈ 25.1 to 50.1 µM)
NCCN1CCN(C(=O)NC(C(=O)N[C@H]2Cc3cccc(C(=O)O)c3OB2O)c2c(F)cc(NS(N)(=O)=O)cc2F)C(=O)C1=O (stereo partly drawn) [Example 177, (3R)-3-(2-(4-(2-aminoethyl)-2,3-dioxopiperazine-1-carboxamido)-2-(2,6-difluoro-4-(sulfamoylamino)phenyl)acetamido)-2-hydroxy-3,4-dihydro-2H-benzo[e][1,2]oxaborinine-8-carboxylic acid] | > 128 | 2 to 4 (≈ 3.06 to 6.12 µM) | > 128 | 32 to 64 (≈ 49 to 98 µM) | > 128 | > 64 | 4 to 8 (≈ 6.12 to 12.2 µM) | > 64 | 16 to 32 (≈ 24.5 to 49 µM) | > 64 | > 64 | > 64 | > 64
NCCCN1CCN(C(=O)NC(C(=O)N[C@H]2Cc3ccc(F)c(C(=O)O)c3OB2O)c2c(F)cc(O)cc2F)C(=O)C1=O (stereo partly drawn) [Example 178, (3R)-3-(2-(4-(3-aminopropyl)-2,3-dioxopiperazine-1-carboxamido)-2-(2,6-difluoro-4-hydroxyphenyl)acetamido)-7-fluoro-2-hydroxy-3,4-dihydro-2H-benzo[e][1,2]oxaborinine-8-carboxylic acid] | > 128 | 2 to 4 (≈ 3.29 to 6.59 µM) | 8 to 16 (≈ 13.2 to 26.3 µM) | 2 to 4 (≈ 3.29 to 6.59 µM) | 32 to 64 (≈ 52.7 to 105 µM) | 16 to 32 (≈ 26.3 to 52.7 µM) | 4 to 8 (≈ 6.59 to 13.2 µM) | > 64 | 16 to 32 (≈ 26.3 to 52.7 µM) | > 64 | > 64 | > 64 | > 64
CCN1CCN(C(=O)NC(C(=O)N[C@H]2Cc3cccc(C(=O)O)c3OB2O)c2c(F)cc(N)cc2F)C(=O)C1=O (stereo partly drawn) [Example 181, (3R)-3-(2-(4-amino-2,6-difluorophenyl)-2-(4-ethyl-2,3-dioxopiperazine-1-carboxamido)acetamido)-2-hydroxy-3,4-dihydro-2H-benzo[e][1,2]oxaborinine-8-carboxylic acid] | > 128 | < 0.25 | 32 to 64 (≈ 57.2 to 114 µM) | 2 to 4 (≈ 3.58 to 7.15 µM) | 32 to 64 (≈ 57.2 to 114 µM) | 4 to 8 (≈ 7.15 to 14.3 µM) | 0.25 to 0.5 (≈ 0.447 to 0.894 µM) | > 64 | 1 to 2 (≈ 1.79 to 3.58 µM) | 16 to 32 (≈ 28.6 to 57.2 µM) | 16 to 32 (≈ 28.6 to 57.2 µM) | 16 to 32 (≈ 28.6 to 57.2 µM) | 16 to 32 (≈ 28.6 to 57.2 µM)
